For this assay, the system named is MG-63 cells.
Setting [1] is: Table III, phenylalanine as a hydrophobic domain, 100 μg/well.

Read-outs that look alike come from different tables or passages of the source. Non-standard residues stand in square brackets, D forms with d. Residues, ends and D or L forms follow the SMILES beside them. Sar = CNCC(=O)O

Method: The peptides were solubilized in 70% EtOH at a starting concentration of 1 mg/ml. […] The remaining wells contained 100 μl of 70% EtOH. Taking 100 μl from the 1 mg/ml solution in the first two wells, a serial dilution was performed out to 0.15 μg/well for each peptide. The plates were allowed to dry overnight at 37° C. in the presence of a desiccator.
The following day the peptide coated plates were used in a standard adhesion assay as described in Example III, using MG-63 cells, an osteosarcoma cell line available from American Type Tissue Culture.
The plates were washed lX using PBS, (151 mM NaCl/10 mM sodium phosphate, pH 7.4). The plates were incubated with DMEM (0.1 ml/well) containing bovine serum albumin (BSA 2.5 mg/ml; Sigma Chemical Co., St. Louis, Mo.) for one hour. Two×10^5 cells/ml (MG-63) were suspended in DMEM, and BSA (2.5 mg/ml). 100 μl of cell suspension was added per well and the plates are incubated at 37° C. in 7.5% CO2 /92.5% air for one hour. Afterwards, the plate was washed once in PBS. Attached cells were then fixed with 3% paraformaldehyde and stained overnight with 1% toluidine blue in 10% formaldehyde. The following day, the excess stain was removed and the plates were washed with H2 O; 100 μl of a 1% sodium dodecyl sulfate (SDS) solution was added to each well. The level of cell attachment was then measured, using a kinetic microplate reader (Molecular Devices,) by assessing the optical density at 630 nm.

`CCCCCCCCCCCCCC(=O)O` [Myristic acid]: the “percentage of maximum binding (cell attachment)” value (from here on “percentage of maximum binding”) is, setting by setting: (Table IV, myristic acid as hydrophobic carrier, 100 μg/well) 33 percentage of maximum binding; (Table IV, 6 μg/well) 45 percentage of maximum binding; (Table IV, 12 μg/well) 75 percentage of maximum binding; (Table IV, 25 μg/well) 50 percentage of maximum binding; (Table IV, 50 μg/well) 30 percentage of maximum binding.

For the compound `CNCC(=O)N[C@H](CCCNC(=N)N)C(=O)NCC(=O)N[C@@H](CC(=O)O)C(=O)N[C@@H](CO)C(=O)N1CCC[C@H]1C(=O)N[C@@H](C)C(=O)N[C@@H](CO)C(=O)N[C@@H](CO)C(=O)N[C@@H](CCCCN)C(=O)N[C@@H](CC(C)C)C(=O)N[C@@H](CC(C)C)C(=O)N[C@@H](CC(C)C)C(=O)N[C@@H](CC(C)C)C(=O)N[C@@H](CC(C)C)C(=O)N[C@@H](CC(C)C)C(N)=O` [nMeG(dR)GDSPASSKL6 NH2] (H-[Sar][dR]GDSPASSKLLLLLL-NH2), the “percentage of maximum binding” value was 9 percentage of maximum binding.

For the compound `CNCC(=O)N[C@H](CCCNC(=N)N)C(=O)NCC(=O)N[C@@H](CC(=O)O)C(=O)N[C@@H](CO)C(=O)N1CCC[C@H]1C(=O)N[C@@H](C)C(=O)N[C@@H](CO)C(=O)N[C@@H](CO)C(=O)N[C@@H](CCCCN)C(=O)N[C@@H](CO)C(=O)N[C@@H](CO)C(=O)N[C@@H](CCCNC(=N)N)C(=O)N[C@@H](CC(C)C)C(=O)N[C@@H](CC(C)C)C(=O)N[C@@H](CC(C)C)C(=O)N[C@@H](CC(C)C)C(=O)N[C@@H](CC(C)C)C(=O)N[C@@H](CC(C)C)C(=O)N[C@@H](CCCNC(=N)N)C(N)=O` [nMeG(dR)GDSPASSKS2 RL6 RNH2] (H-[Sar][dR]GDSPASSKSSRLLLLLLR-NH2), the “percentage of maximum binding” value is 38 percentage of maximum binding.

As to `CNCC(=O)N[C@H](CCCNC(=N)N)C(=O)NCC(=O)N[C@@H](CC(=O)O)C(=O)N[C@@H](CO)C(=O)N1CCC[C@H]1C(=O)N[C@@H](C)C(=O)N[C@@H](CO)C(=O)N[C@@H](CO)C(=O)N[C@@H](CCCCN)C(=O)N[C@@H](CO)C(=O)N[C@@H](CO)C(=O)N[C@@H](CO)C(=O)N[C@@H](CO)C(=O)N[C@@H](CCCNC(=N)N)C(=O)N[C@@H](CC(C)C)C(=O)N[C@@H](CC(C)C)C(=O)N[C@@H](CC(C)C)C(=O)N[C@@H](CC(C)C)C(=O)N[C@@H](CC(C)C)C(=O)N[C@@H](CC(C)C)C(=O)N[C@@H](CCCNC(=N)N)C(N)=O` [nMeG(dR)GDSPASSKS4 RL6 RNH2] (H-[Sar][dR]GDSPASSKSSSSRLLLLLLR-NH2), the “percentage of maximum binding” value was 76 percentage of maximum binding.

On to XG(R)GDSPASSKL4 NH2 [Peptide L4], for which the “percentage of maximum binding” value (Table II, 1.5 μg/well peptide, MG-63 cells) is reported as 1 percentage of maximum binding; the “percentage of maximum binding” value (Table II, 3 μg/well peptide, MG-63 cells) was 1 percentage of maximum binding; the “percentage of maximum binding” value (Table II, 6 μg/well peptide, MG-63 cells) is 2 percentage of maximum binding; the “percentage of maximum binding” value (Table II, 12 μg/well peptide, MG-63 cells) was 10 percentage of maximum binding; the “percentage of maximum binding” value (Table II, 25 μg/well peptide, MG-63 cells) is reported as 16 percentage of maximum binding; the “percentage of maximum binding” value (Table II, 50 μg/well peptide, MG-63 cells) was 12 percentage of maximum binding. Also, the “percentage of maximum binding” value (Table II, 100 μg/well peptide dried onto well, MG-63 cells) is 44 percentage of maximum binding. Besides, the “promotion of cell attachment (result in words)” value (peptide coated 100 to 1.5 μg/well, MG-63 cells, summary of Table II) is “promoted marginal cell attachment only at the highest concentration of 100 μg/well”.

With nMEGRGDSPASSKRF6 RNH2, the “percentage of maximum binding” value is 70 percentage of maximum binding under setting [1]; 50 percentage of maximum binding (Table III, 1.5 μg/well); 54 percentage of maximum binding (Table III, 3 μg/well); 57 percentage of maximum binding (Table III, 6 μg/well); 52 percentage of maximum binding (Table III, 12 μg/well); 56 percentage of maximum binding (Table III, 25 μg/well). In addition, under “Table III, 50 μg/well”, the “percentage of maximum binding” value is on record as 75 percentage of maximum binding.

Turning to “nMeG(dR)GDSPASSKRF4 RNH2 [nMeGRGDSPASSKRF4 RNH2]”, the “percentage of maximum binding” value reads like this: under setting [1], 70 percentage of maximum binding; (Table III, 1.5 μg/well) 34 percentage of maximum binding; (Table III, 3 μg/well) 50 percentage of maximum binding; (Table III, 6 μg/well) 56 percentage of maximum binding; (Table III, 12 μg/well) 59 percentage of maximum binding; (Table III, 25 μg/well) 60 percentage of maximum binding. The “percentage of maximum binding” value (Table III, 50 μg/well) is given as 73 percentage of maximum binding.

As to nMeGRGDSPASSKRL5 RNH2, the “percentage of maximum binding” value by setting is: under setting [1], 72 percentage of maximum binding; (Table III, 1.5 μg/well) 34 percentage of maximum binding; (Table III, 3 μg/well) 44 percentage of maximum binding; (Table III, 6 μg/well) 60 percentage of maximum binding; (Table III, 12 μg/well) 66 percentage of maximum binding; (Table III, 25 μg/well) 58 percentage of maximum binding. Besides, for the setting “Table III, 50 μg/well”, the “percentage of maximum binding” value is on record as 68 percentage of maximum binding.

For nMeGRGDSPASSKS3 RF6 RNH2, the “percentage of maximum binding” value by setting is: under setting [1], 69 percentage of maximum binding; (Table III, 1.5 μg/well) 70 percentage of maximum binding; (Table III, 3 μg/well) 70 percentage of maximum binding; (Table III, 6 μg/well) 65 percentage of maximum binding; (Table III, 12 μg/well) 66 percentage of maximum binding; (Table III, 25 μg/well) 60 percentage of maximum binding. For the same compound, the “percentage of maximum binding” value (Table III, 50 μg/well) is 69 percentage of maximum binding.

(Values after patent US5760176A, “Hydrophobic attachment site for adhesion peptides” (La Jolla Cancer Research Foundation, priority 1996, dated 1998).)
